According to patent US20100016546A1, “Therapeutic Peptide-Polysaccharide Biomaterials” (priority 2005, published 2010):
Read-outs that look alike come from different tables or passages of the source. No end group written: not given here.

How the values were obtained:
E. coli BL21(DE3) [1] = format: cell-based; conditions: for Measured Potency: Free Peptide (LC90) / Measured Potency: Peptide/Agarose Conjugate (LC90): E. coli (BL21 (DE3)); for Measured Potency: Peptide/Agarose Conjugate (LC90): effective peptide concentration
Experimental: Overall, antimicrobial activity can be evaluated by incubating small cultures of E. coli (BL21) at 37° C. with agitation (e.g., ˜3 to ˜5 hrs) in minimal media in the presence/absence of varied amounts of peptide conjugate or free peptide. Aliquots can be collected at predetermined time points to determine the cell density. One OD600 of the solution=2×10^9 CFU/ml. Correlating changes in cell density between cultures incubated with varied amounts of conjugate and cultures grown in the absence of conjugates can provide a means of evaluating the antimicrobial potency of the varied constructs. Assays such as this one are known to be used in evaluating the potency of antimicrobial peptidomimetics and biomaterials.
In one embodiment, the antimicrobial activity of the free peptides and conjugates have been assayed against E. coli BL21(DE3) cultures. In this assay, the bacteria (at ˜1×10^6 CFU/ml) are incubated for 2 hours at 37° C. in 10 mM phosphate (e.g., Na2HPO4) buffer (pH ˜7.5) with varied concentrations of peptide or peptide-conjugate. After this time, 20 μl aliquots of each culture and serial dilutions of the culture are plated onto LB agar plates and incubated over night at 37° C. The number of colonies on these plates is then counted and the survival percentage is determined relative to a control culture. The example contained no peptide.
In another embodiment, a stock solution containing 1 mg of peptide per ml solution may be prepared. Using the stock peptide (1 mg/ml) solution, assays may be prepared (volume of ˜100 μl) at 1 μg/ml, 10 μg/ml, and 100 μg/ml of free peptide (e.g., HBD-332-45). In the control sample, 10 μl of 100 mM phosphate buffer, 80 μl of sterile water and 10 μl of cell cultures may be combined and incubated without peptide for two hours at 37° C. After two hours incubation, 20 μl aliquots of the above solutions, and 1:10, and 1:100 dilutions of each may be plated in LB-agar plates and incubated over night at 37° C.
In another embodiment, peptide conjugate (e.g., HBD-332-45-agarose) with a loading of 3.82 μg of peptide/1 μl of resin may also be assayed at effective peptide concentrations of 1 μg/ml, 10 μg/ml, 25 μg/ml, 50 μg/ml, 75 μg/ml and 100 μg/ml. For example, an effective peptide concentration of 100 μg/ml of suspension may be prepared by using 52.2 μl of a 50% suspension of 3.82 μg/μl of peptide suspension (100 μg×[1 μl/3.82 μg]=26.1 μl). Samples containing varying concentrations of peptide conjugate may be combined with 10 μl of 100 mM phosphate buffer having a pH of about 7.5, 10 μl of cell cultures (˜1×10^7 CFU/ml), and the required volume of sterile water to bring a total volume of 100 μl. This combination may be incubated at 37° C. with agitation for two hours. After incubation, 20 μl of each cell culture and 1:10 and 1:100 dilutions of each cell culture may be plated on LB-agar plates and incubated at 37° C. overnight. Similar protocols may be used to evaluate the antimicrobial activity of the HBD-336-45 peptide and corresponding conjugate. […]
The results of the antimicrobial assay using free HBD-332-45 and agarose conjugate can be seen in FIG. 17. Antimicrobial activity of free HBD-332-45 is given on the left and that of the HBD-332-45 peptide-conjugate is shown on the right. E. coli at 1×10^6 CFU/ml were incubated with varied peptide concentrations (free peptide and peptide conjugate). Serial dilutions (0.1× and 0.01×) of cell cultures in all plates are shown across the figure.

E. coli BL21(DE3) [2] = conditions: cited from earlier work
E. coli = conditions: free peptide; cited from earlier work

| Substance | reduction in the number of colonies (E. coli BL21(DE3) [1]; free peptide, 1 μg/ml) [%] | reduction in the number of colonies (E. coli BL21(DE3) [1]; free peptide, 10 μg/ml) [%] | Measured Potency: Free Peptide (LC90) (E. coli BL21(DE3) [1]; free peptide) [µg/mL] | Measured Potency: Peptide/Agarose Conjugate (LC90) (E. coli BL21(DE3) [1]) | Reported Potency: Free Peptide (LC90) (E. coli BL21(DE3) [2]) [µg/mL] | Measured Potency: Peptide/Agarose Conjugate (LC50) (E. coli BL21(DE3) [1]; Escherichia coli, 2 h, pH 7.5) | bacteria killed (E. coli BL21(DE3) [1]; free peptide, 1 μg/ml, E. coli 1×10^6 CFU/ml, 2 h) [%] | microbicidal efficiency (E. coli BL21(DE3) [1]; free peptide, 10 μg/ml) [%] | microbicidal efficiency (E. coli BL21(DE3) [1]; free peptide, 100 μg/ml) [%] | antimicrobial activity against E. coli (E. coli) [mg/mL] |
| --- | --- | --- | --- | --- | --- | --- | --- | --- | --- | --- |
| RGRKSSRRKK-OH [HBD-336-45, RGRKSSRRKK] | ~67 | ~97 | 2.23 | >100 μg/m μg/ml | ~4 | – | – | – | – | – |
| RGRRSSRRKK-NH2 [HBD-336-45(Rev2), RGRRSSRRKK-NH2] | – | – | 0.15 | ~26 µg/mL | – | – | – | – | – | – |
| KSSTRGRKSSRRKK-OH [HBD-332-45, KSSTRGRKSSRRKK] | – | – | 0.20 | ~75 µg/mL | ~1 | ~10 μg/ml (LC50) | ~93 | > 99 | > 99 | 1 ± 0.1 |
